Values of other authors, collected in publication PMC9307173, “OX2R-selective orexin agonism is sufficient to ameliorate cataplexy and sleep/wake fragmentation without inducing drug-seeking behavior in mouse model of narcolepsy” (PLoS ONE, 2022).
Entries after “also recorded” stand apart in the source; their conditions may differ.

Assays:
[1] = system: orexin knockout and orexin neuron-ablated mice; parameters: method as in PMID 28507129
[2] = system: addiction-like behaviors; details: OX1R-selective antagonist
Source text: Orexin also activates the reward system. Orexin neurons in the LH project to the dopaminergic reward system in the ventral tegmental area (VTA), and promote the dopamine release in the nucleus accumbens and the prefrontal cortex, potentially inducing addiction-like behaviors and reinforcing effects. Orexin-mediated neural signaling also contributes to the development of addiction to drugs of abuse such as cocaine, morphine and nicotine. Anatomically, both OX1R and OX2R are present in VTA, with dopaminergic neurons predominantly expressing OX1R ...

Structure (SMILES) | wakefulness promotion (in words) ([1]; mouse models of narcolepsy) | cataplexy-like episodes (in words) ([1]; mouse models of narcolepsy / OXKO mice) | wake fragmentation (in words) ([1]; narcoleptic model mice / OXKO mice) | addiction-like behaviors induced by drugs of abuse or OXA (in words) [2]
COc1ccc(-c2cccc(C(=O)N(C)C)c2)cc1S(=O)(=O)Nc1cccc(NCCNC(=O)c2ccccc2N(C)C)c1 [YNT-185] | promotes wakefulness | effectively suppressed cataplexy-like episodes; also recorded: ameliorates cataplexy-like episodes | did not appreciably ameliorate the wake fragmentation; also recorded: did not sufficiently suppress the active-phase fragmentation of wakefulness | 
Cc1nc2ccc(NC(=O)Nc3ccnc4cccnc34)cc2o1 [SB334867] |  |  |  | inhibited
